Assay results as given in ChEMBL document CHEMBL3507680, “University of Dundee, Gates Library screen for HepG2 cell viability”.

Experiment: Human HepG2 cell viability assay in 384 well format
Format: toxicity, cell-based
Parameters: dose 125 nL, time 70.5 hour; concentration not given beside the values
Settings: HepG2 cells, read-out: Inhibition

Structure (SMILES) | cytotoxicity at 70.5 h
Cc1nc(C)n(CC2CCCCN2CCC(=O)Nc2cc(C)on2)n1 (stereo not given) | -3.96%
CCC1CCN(CCn2cnc3c(C)csc3c2=O)CC1 | -6.08%
O=C(Cc1ccc(O)c(Cl)c1)N1CCN(CC2CC2)[C@@H]2CS(=O)(=O)C[C@@H]21 | 17.4%
O=C(Cc1ccc(F)cc1)N1C[C@H]2CCN[C@H]2C1 | -5%
Cc1cc(C)n(CC2CN(Cc3nc(C)c(C)o3)CCO2)n1 (stereo not given) | -5.6%
CC1(C(=O)N2CCOCC2)CN(Cc2cccnc2)CCO1 (stereo not given) | -8.77%
Cc1cc(Oc2ccccc2F)nc(C2CCCCN2)n1 (stereo not given) | -6.21%
CCN(CC)Cc1ccccc1NCc1c(C)noc1C | -0.774%
CN1CCN(c2ncnc3c2CCN(Cc2nccn2C)CC3)CC1 | 6.69%
CCc1nc(C(=O)N(CC)CC(=O)Nc2cc(Cl)ccc2C)c[nH]1 | -4.72%
c1coc(CN2CCC3(CC2)COC(COCC2CC2)C3)c1 (stereo not given) | 15.1%
CC(C)c1cc(C(=O)N2CCc3nc(C4CCCN4)ncc3C2)cs1 (stereo not given) | 0.261%
CCCC(=O)Nc1ccc2c(c1)C1(CCOCC1)CN2CCOC | 18.8%
Cc1cc(CN2CCC(O)(Cn3ccc4ncccc43)CC2)c(C)s1 | 4.82%
CNC(=O)[C@@H](c1ccccc1OC)N1CCC[C@H]1C(=O)N1CCC1 | -5.76%
CNS(=O)(=O)c1ccc(CNC(=O)N(CC(C)C)C(C)C)cc1 | -96.5%
CN(C)[C@H]1CCCCN(Cc2ccccc2Cn2cccn2)C1 | 2.32%
CCCNS(=O)(=O)c1ccc2[nH]c(=O)cc(C)c2c1 | -12.9%
O[C@@H]1CN(Cc2ccncc2)C[C@H]1Oc1ccccc1 | -5.71%
O=C1CC(c2ccc(C(=O)O)cc2)c2ncn(-c3ccc(F)cc3)c2N1 (stereo not given) | -4.89%
Cc1ccccc1-c1cc(NC(=O)NC2CC2)n(CCO)n1 | 1.97%
CN(C)CCOCC1CN(C(=O)c2cscn2)Cc2ccnn2C1 (stereo not given) | -8.28%
O=C(NC(c1ccccc1)c1cccnc1)C1CC1 (stereo not given) | -6.82%

Structure (SMILES) | cytotoxicity at 70.5 h
CCO[C@@H]1CC[C@H]2[C@H]1OCCN2CC1CCC1 | -104%
CCCNC(=O)C1CCN(CC(O)c2ccc(C(F)(F)F)cc2)CC1 (stereo not given) | -5.86%
COc1ncc(C2(O)CCN(Cc3cccs3)CC2)c(OC)n1 | -8.54%
Cc1cc(C)cc(CCC(=O)NC(C)c2nnn[nH]2)c1 (stereo not given) | -2.97%
Cc1cccc2c1nc(CCO)n2-c1ccc(NS(C)(=O)=O)nc1 | -8.44%
CCn1ccnc1CN(C)c1nc(-c2ccc(Cl)cc2)nc2c1CNC2 | -9.22%
CC(C)c1csc(C(=O)N(C)c2ccc(Br)cn2)n1 | -3.47%
Cc1ccc(NC2CCN(C(=O)CCc3ccco3)CC2)nn1 | -9.84%
Cc1cccc(CN2CCOC(C)(C(=O)N3CCOCC3)C2)n1 (stereo not given) | 11%
CC(C)CN(CC(O)c1ccccc1)C(=O)Nc1nccs1 (stereo not given) | -6.61%
CC(C)c1noc(CCCC(=O)N2CCN(Cc3cccnc3)CC2)n1 | -13%
Cc1cc(-n2cnnn2)n2ncnc2n1 | 3.71%
COCCC(=O)N1CC2(CCN(Cc3ccoc3)C2)C1 | 33.7%
CC(=O)N1CCC(NC[C@H]2Cn3c(-c4ccccc4)cnc3CO2)CC1 | -5.76%
NC(=O)C1(CCCc2ccncc2)CCCN1 (stereo not given) | -3.08%
Cc1cc(C)c(C(=O)N2CCOC(c3cccs3)C2)c(=O)[nH]1 (stereo not given) | -6.92%
O=C(NCCNc1ncccn1)C1CC(=O)N(Cc2ccco2)C1 (stereo not given) | -4.28%
Cc1ccc(C(=O)NCC(O)c2ccc(F)c(F)c2)c(=O)[nH]1 (stereo not given) | -10.6%
O=C(c1cccs1)N1CCC2(CC1)CC(Oc1ccccc1)CO2 (stereo not given) | -10.8%
CCCN(CCc1ccccc1)C(=O)c1ccccc1NCC(=O)O | -7.74%
CCc1nc(CN2CCN(C(=O)c3cnccn3)CC2)cs1 | -5.66%
COCCOc1ncccc1C(=O)N1CCCCC1c1nccs1 (stereo not given) | -3.02%
CC(=O)N1CCCn2nc(CNc3cc(C)ncn3)cc2C1 | 15%

Structure (SMILES) | cytotoxicity at 70.5 h
COc1ccc(C2=C(C)C(N3CCc4ccccc4C3)=NS2(=O)=O)cc1 | 48.7%
COc1ccc(C(=O)NC[C@H]2COCc3nc4cc(C)ccc4n32)cc1 | -4.37%
CC(C)(C)c1ncc(C(=O)NCCNc2ncccn2)s1 | -4.56%
CCCOC1CCCN(Cc2nc(-c3cccs3)oc2C)C1 (stereo not given) | -1.07%
CC(C)NC(=O)C1CN(C(=O)Cc2ccccc2)CC12CCOCC2 (stereo not given) | -13.2%
Cc1noc([C@@H]2CCCN2C(=O)C2CCN(C(=O)C3CCC3)CC2)n1 | 10.6%
Cc1ccc(C(=O)N2CCC3(CCC(=O)N(CCN(C)C)C3)CC2)nc1 | -3.11%
Cc1ncsc1C(=O)N[C@@H](Cc1ccccc1)C(N)=O | -1.24%
O=S(=O)(Cc1ccccc1Cl)CC(O)CO (stereo not given) | 4.74%
COc1ccc(CN2CCN(C(C)c3nc(C4CC4)no3)CC2)cc1 (stereo not given) | -6.65%
CN(Cc1ccccc1)CC(C)(C)NC(=O)c1ccon1 | -4.18%
COCCC(=O)N1CCC(c2noc3nc(C)cc(C(F)(F)F)c23)CC1 | -4.96%
Cc1cnc(C(=O)N2CCCC(Cn3cc(C4CC4)nn3)C2)cn1 (stereo not given) | -10.1%
NC(=O)c1ccc(C(=O)N2CCCCC2Cn2cccn2)s1 (stereo not given) | 19.1%
N#Cc1cccnc1OC1CCN(S(=O)(=O)c2ccc(Br)cc2)CC1 | -12.9%
CN(CCCNC(=O)C1CCc2cn[nH]c2C1)c1ccc(F)cc1 (stereo not given) | 16.9%
Cc1csc(CCNC(=O)NC(C)Cn2cccn2)n1 (stereo not given) | 19%
CC(=O)N1CCC2(C1)CN(C(=O)C1CCOC1)C2 (stereo not given) | -11.2%
O=C(c1ccno1)N1CCO[C@]2(CCC[C@@H]2COCc2ccncc2)C1 | -2.51%
COc1ccccc1N1CCN(CC(=O)NC(C)c2ccco2)CC1 (stereo not given) | -5.63%
COc1cccc(CC(=O)N2CCN(C)c3ncccc3C2)c1 | 1.87%
COCC(=O)N1CCCCC1c1nc(CN(C)C(C)=O)cc(N(C)C)n1 (stereo not given) | 50.7%
CN(Cc1cscn1)Cc1cc2c(cc1Br)OCO2 | -4.04%

Structure (SMILES) | cytotoxicity at 70.5 h
COc1ccc(CN2CCC(c3cc(O)nc(C)n3)C2)c(F)c1 (stereo not given) | -1.14%
Cc1ccc(CN2CC[C@H]3[C@H](CO[C@H]3CN(C)C)C2)o1 | -11.7%
CC(C)Oc1ccccc1-c1cc(CN)ccc1F | 5.05%
CCOc1ccc(C(=O)NCc2ccnc(N3CCCC3)c2)cn1 | -6.13%
Cc1nc(C(=O)N2CCC(Nc3cccnn3)CC2)cs1 | 28.6%
Cc1cccc(C(=O)N2CCN(S(C)(=O)=O)[C@@H]3CS(=O)(=O)C[C@@H]32)n1 | -7.33%
CCC(C)C(=O)NS(=O)(=O)c1ccc(C#N)cc1C(F)(F)F (stereo not given) | -3.39%
Cc1ccnn1CC(=O)N1CCN(C2CCc3ccccc3C2)CC1 (stereo not given) | 3.04%
CCC(O)CN1CCN(C(=O)c2cccn2Cc2ccccc2)CC1 (stereo not given) | -10.3%
COCCNC(=O)c1sccc1N(C)S(=O)(=O)c1ccc(Cl)cc1 | -22.2%
CCN(C)S(=O)(=O)NCC1(c2cccc(Br)c2)CC1 | -1.33%
Cc1ccc(-c2nc(C(=O)N3CCCCC3CNS(C)(=O)=O)cs2)cc1 (stereo not given) | 11%
c1coc(-c2noc(CN3CCc4cncnc4C3)n2)c1 | -7.56%
COc1cccc(OCC(=O)N(C)c2cccnc2N(C)C)c1 | -8.02%
Cc1cc(C)n(C2CN(Cc3noc(C4CC4)n3)C2)n1 | 20.6%
NC(=O)c1cnc(NC2CCN(c3ccccc3)CC2)c(Cl)c1 | -1.28%
c1cc(CN2CCCC2)cc(-n2ccnc2-c2ccncc2)c1 | 0.243%
CC(=O)NC1Cc2ccc(S(=O)(=O)NCCNc3ccccn3)cc2C1 (stereo not given) | -4.42%
CN(C)CCN1C(=O)CO[C@@H]2CN(c3ncc(F)cn3)C[C@H]21 | -6.29%
O=C(NCCN1CCCCCC1=O)Nc1cccnc1-n1cccn1 | 23.5%
CC1CN(CCc2ccccn2)CCN1c1ccc2nncn2n1 (stereo not given) | -3.22%
Cc1cnc(C(=O)N2CCc3ncnc(C)c3CC2)cn1 | -3.63%
Cc1c(Br)cccc1C(=O)NCc1cnn(C)c1 | 2.04%

Structure (SMILES) | cytotoxicity at 70.5 h
Cc1nn(C)cc1-c1ccnc(N(C)Cc2ccc(F)cc2)n1 | -4.85%
CN(CC(=O)Nc1ccccc1)C(=O)CN(C)c1ccc(Cl)cn1 | -10.4%
COC(=O)C1CN(Cc2ccccc2C(C)(C)C#N)CCO1 (stereo not given) | -5.04%
CSCC(C)(O)CNC(=O)c1cc(Br)ccc1Cl (stereo not given) | 16.5%
CCn1nc(C)c2nc(C(C)C)nc(N3CCOCC3)c21 | 11.2%
CCNc1ncc(C(=O)NC(CC)c2ccnn2C)cn1 (stereo not given) | -5.36%
CNC(=O)CCS(=O)(=O)Cc1coc(-c2ccc(F)cc2)n1 | -20.2%
O=C(NCc1nncn1C1CCCCC1)C1COc2ccccc2O1 (stereo not given) | -7.82%
CC(C)(C)NC(=O)COc1ccc(CNCc2ccccn2)cc1 | 25.3%
CCSc1cc(C(=O)NCCC(=O)N(C)C)ccn1 | -103%
CN(C)C(=O)N1CCN(C(=O)c2ccn3cncc3c2)CC1 | 0.173%
c1csc(-c2nc(CN3CCN(c4cnccn4)CC3)co2)c1 | -18.4%
CN(Cc1ccco1)[C@@H]1CN(C(=O)c2ccnnc2)C[C@@H]2CCCO[C@@H]21 | -7.61%
Cc1cccc(C(=O)Nc2c(C(N)=O)n[nH]c2C)c1C | -5.24%
O=C1Nc2ccccc2CC12CCN(CCO)C2 (stereo not given) | -6.04%
O=C(Nc1cccnc1)N(Cc1ccccc1)C1CC1 | -15.3%
COc1ccc(CNC[C@H]2COCc3nc4cccnc4n32)cn1 | -6.49%
Cc1ccc(CN(C)C(=O)CNC(C)(C)c2noc(C(C)(C)C)n2)o1 | -0.348%
CN(C)CCNC(=O)CC1CCN(c2cccnn2)CC1 | -2.25%
Cc1nnc(NC(=O)NCc2ccnc(N(C)C)c2)s1 | 1.13%
O=C(c1csc(-c2cccs2)n1)N1CCN2CCCCC2C1 (stereo not given) | -2.54%
Cc1n[nH]c(C2CN(C(=O)c3csnn3)CCO2)n1 (stereo not given) | -11.9%
Cc1cnc(C(=O)N2CCCC(n3cncn3)C2)cn1 (stereo not given) | -4.15%
